Measurements from EP0479121A1, “Skin treatment compositions containing beta-phosphatidyl choline derivatives” (FIDIA S.p.A., priority 1990, dated 1992).

Columns and labels:
stratum corneum = assay: In vivo hydration tests on human volunteers, Corneometer (Test 3); conditions: 50 mg cream on volar forearm (20 cm²), average of 10 subjects, lower numbers = higher hydration, before application 241±21; for Measured hydration values, 30': 30 min after application; for Measured hydration values, 150': 150 min after application; for Measured hydration values, 270': 270 min after application
Protocol: The hydration tests were conducted using a Corneometer laboratory instrument equipped with a capacitive probe able to measure the moisture present on the stratum corneum. To conduct the test, 50 mg of standard cream and cream containing the various synthetic β-lecithins prepared as Examples 1 and 2 are applied to the volar surface of the forearm (20 cm² ) with light circular massage.
The hydration measurements were taken before applying the product and 30 min, 150 min and 270 min after its application. The hydration values are expressed in arbitrary units deriving from electrical impedance measurements on the cutaneous surface. Although the values are relative they are in inverse linear relationship to the absolute water quantity present in the cutaneous layer of the skin (lower numbers correspond to higher hydration).

[1] = Emulsion stability under centrifuging at 6000 r.p.m. (Test 2); format: physicochemical; conditions: 250 mg in 10 g water added to 90 g standard emulsion, phase separation noted
Protocol: To evaluate the influence of β-phosphatidyl choline derivatives on emulsion stability, a standard emulsion was prepared having the following composition (Table 2):
The aqueous phase heated to 70°C is slowly added to the oil phase heated to 75°C. Rapid agitation is effected by a Silverson laboratory mixer equipped with an emulsifying head and is continued for about 30 minutes, slowly cooling the formed emulsion to ambient temperature.
250 mg of each of the considered β-lecithins dispersed or dissolved in 10 g of water are added under slow agitation to 90 g of the standard emulsion obtained.
The resultant emulsions are tested for stability by subjecting them to centrifuging at 6000 r.p.m. for 10, 30 and 60 minutes respectively, and by storing them under temperature control at 45°C for 72 hours. In both cases the stability is evaluated by noting any phase separation.

CCCCCCCCCCCCCCCC(=O)OCC(COC(=O)CCCCCCCCCCCCCCC)OP(=O)([O-])OCC[N+](C)(C)C [PCS1, 1,3-dipalmitoylglycero-2-phosphoryl choline]
Measured hydration values, 30' (stratum corneum): 165±10 arbitrary units | Measured hydration values, 150' (stratum corneum): 195±15 arbitrary units | Measured hydration values, 270' (stratum corneum): 213±15 arbitrary units | Stability under centrifuging at 6000 r.p.m., 10 min ([1]; 10 min): Stable | Stability under centrifuging at 6000 r.p.m., 30 min ([1]; 30 min): Stable | Stability under centrifuging at 6000 r.p.m., 60 min ([1]; 60 min): Stable

COc1cc(C(=O)OCC(COC(=O)c2cc(OC)c(OC)c(OC)c2)OP(=O)([O-])OCC[N+](C)(C)C)cc(OC)c1OC [PCS5, 1,3-di(3,4,5-trimethoxybenzoyl)glycero-2-phosphoryl choline]
Measured hydration values, 30' (stratum corneum): 124±14 arbitrary units | Measured hydration values, 150' (stratum corneum): 144±16 arbitrary units | Measured hydration values, 270' (stratum corneum): 177±15 arbitrary units

CCCCCCCCCCCCCCCCCC(=O)OCC(COC(=O)CCCCCCCCCCCCCCCCC)OP(=O)([O-])OCC[N+](C)(C)C [PCS4, 1,3-distearoylglycero-2-phosphoryl choline]
Measured hydration values, 30' (stratum corneum): 132±12 arbitrary units | Measured hydration values, 150' (stratum corneum): 161±11 arbitrary units | Measured hydration values, 270' (stratum corneum): 180±12 arbitrary units

CC(C)(C)C(=O)OCC(COC(=O)C(C)(C)C)OP(=O)([O-])OCC[N+](C)(C)C [PCS3, 1,3-dipivaloylglycero-2-phosphoryl choline]
Measured hydration values, 30' (stratum corneum): 157±7 arbitrary units | Measured hydration values, 150' (stratum corneum): 193±13 arbitrary units | Measured hydration values, 270' (stratum corneum): 206±9 arbitrary units

CCCCCCCCCCCCCC(=O)OCC(COC(=O)CCCCCCCCCCCCC)OP(=O)([O-])OCC[N+](C)(C)C [PCS2, 1,3-dimyristoylglycero-2-phosphoryl choline]
Measured hydration values, 30' (stratum corneum): 147±11 arbitrary units | Measured hydration values, 150' (stratum corneum): 175±10 arbitrary units | Measured hydration values, 270' (stratum corneum): 195±9 arbitrary units
